Among the data in patent publication US10399932B2, “Inhibitors of indoleamine-2,3-dioxygenase for the treatment of cancer” (BRISTOL-MYERS SQUIBB COMPANY, priority 2015, dated 2019) are IC50 values, retold here.

The structures appear in SMILES notation. Some results are limits rather than exact numbers.

As usually defined, the IC50 is the concentration that inhibits the measured activity by half.

human IDO1, sequence (P14902 whole entry): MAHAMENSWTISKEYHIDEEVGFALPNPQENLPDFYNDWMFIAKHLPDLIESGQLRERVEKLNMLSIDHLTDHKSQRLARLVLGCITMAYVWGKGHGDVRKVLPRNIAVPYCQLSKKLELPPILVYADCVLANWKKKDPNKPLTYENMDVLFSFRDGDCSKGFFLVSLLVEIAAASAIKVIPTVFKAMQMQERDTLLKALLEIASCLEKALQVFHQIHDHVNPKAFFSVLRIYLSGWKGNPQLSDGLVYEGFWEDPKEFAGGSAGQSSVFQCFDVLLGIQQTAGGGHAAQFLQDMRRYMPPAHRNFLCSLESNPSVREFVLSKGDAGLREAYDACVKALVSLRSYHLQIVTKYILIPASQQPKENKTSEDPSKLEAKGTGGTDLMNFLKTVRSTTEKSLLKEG

This experiment has as its target human IDO1 (Homo sapiens, UniProt P14902). As to the kind of experiment: Assessment of human IDO-1 inhibitory activity in HEK cells (human IDO1/HEK293 cells, Ehrlich reagent, absorbance at 490 nm). In kind it is cell-based. Further details: expressed in transfected cells. The following applies: In Vitro Potency in the HEK Human IDO-1 Cellular Assay. The procedure:
Exemplary compounds were tested for inhibition of IDO activity.
HEK293 cells were transfected with a pCDNA-based mammalian expression vector harboring human IDO1 cDNA (NM 002164.2) by electroporation. They were cultured in medium (DMEM with 10% FBS) containing 1 mg/ml G418 for two weeks. Clones of HEK293 cells that stably expressed human IDO1 protein were selected and expanded for IDO inhibition assay.
The human IDO1/HEK293 cells were seeded at 10,000 cells per 50 μL per well with RPMI/phenol red free media contains 10% FBS in a 384-well black wall clear bottom tissue culture plate (Matrix Technologies LLC) 100 nL of certain concentration of compound was then added to each well using ECHO liquid handling systems. The cells were incubated for 20 hours in 37° C. incubator with 5% CO2.
The compound treatments were stopped by adding trichloroacetic acid (Sigma-Aldrich) to a final concentration at 0.2%. The cell plate was further incubated at 50° C. for 30 minute. The equal volume supernatant (20 μL) and 0.2% (w/v) Ehrlich reagent (4-dimethylaminobenzaldehyde, Sigma-Aldrich) in glacial acetic acid were mixed in a new clear bottom 384-well plate. This plate was then incubated at room temperature for 30 minute. The absorbance at 490 nm was measured on Envision plate reader.
Compound IC50 values were calculated using the counts of 500 nM of a reference standard treatment as one hundred percent inhibition, and counts of no compound but DMSO treatment as zero percent inhibition.
As to `CCC(CC(=O)O)c1ccc(N(CC(C)C)C2CCCCC2)c(Nc2ccc(F)c(F)c2)c1` (single isomer, unassigned) [Example 306, 3-(4-(cyclohexyl(isobutyl)amino)-3-((3,4-difluorophenyl)amino)phenyl)pentanoic acid], the IC50 is < 5 nM.
The result for `Cc1ccc(CC(=O)Nc2cc(C(CC(=O)O)C3CC3)ccc2N(CC(C)C)C2CCCCC2)cc1` (single isomer, unassigned) [Example 1249, 3-(4-(Cyclohexyl(isobutyl)amino)-3-(2-(p-tolyl)acetamido)phenyl)-3-cyclopropylpropanoic acid] reads < 5 nM.
With `CC(C)C(CC(=O)O)c1ccc(N(C)C(C)(C)C)c(Nc2nc3ccccc3o2)c1` (single isomer, unassigned) [Example 1008-2] the figure was > 50 nM.
The result for `CCC(CC(=O)O)c1cc(NC(=O)Nc2ccc3c(c2)OCO3)c(N(CC(C)C)C2CCCCC2)cc1F` (single isomer, unassigned) [Example 1112, 3-(5-(3-(Benzo[d][1,3]dioxol-5-yl)ureido)-4-(cyclohexyl(isobutyl)amino)-2-fluorophenyl)pentanoic acid] reads < 5 nM.
For `COCC(CC(=O)O)c1ccc(N(CC(C)C)C2CCCCC2)c(NC(=O)Nc2ccc(C)cc2)c1` (single isomer, unassigned) [Example 989-2], the IC50 is < 5 nM.
The result for `CC(CC(=O)O)c1ccc(N2CCC[C@H]2C(C)(C)O)c(Nc2ccc(F)cc2)c1` (single isomer, unassigned) [Example 803] reads > 50 nM.
Regarding `CCC(CC(=O)O)c1ccc(N(CC2CC2)C2CCOCC2)c(Nc2ccc3nc(C)sc3c2)c1` (single isomer, unassigned) [Example 707, 3-(4-((Cyclopropylmethyl)(tetrahydro-2H-pyran-4-yl)amino)-3-((2-methylbenzo[d]thiazol-6-yl)amino)phenyl)pentanoic acid], the IC50 was < 50 nM.
Consider `CCC(CC(=O)O)c1cc(NC(=O)Nc2ccc(C)cc2F)c(N(CC(C)C)C2CCCCC2)cc1F` (single isomer, unassigned) [Example 1121, 3-(4-(Cyclohexyl(isobutyl)amino)-2-fluoro-5-(3-(2-fluoro-4-methylphenyl)ureido)phenyl)pentanoic acid], for which the IC50 is < 5 nM.
With `CC(CC(=O)O)c1ccc(N2CCC[C@H]2C(C)(C)O)c(Nc2ccc(C#N)cc2)c1` (single isomer, unassigned) [Example 802] the figure was > 50 nM; with `CCC(CC(=O)O)c1ccc(N2CCC[C@H]2C(C)(C)O)c(NC(=O)Nc2ccc(OC)cc2F)c1` (single isomer, unassigned) [Example 830], > 50 nM.
The result for `COCC(CC(=O)O)c1ccc(N(CC(C)C)C2CCCCC2)c(NC(=O)Cc2ccc(Cl)cc2F)c1` (single isomer, unassigned) [Example 1246, 3-(3-(2-(4-Chloro-2-fluorophenyl)acetamido)-4-(cyclohexyl(isobutyl)amino)phenyl)-4-methoxybutanoic acid] reads < 5 nM; that for `CCOc1ccc(NC(=O)Nc2cc(C(CC(=O)O)C3CC3)ccc2N(CC(C)C)C2CCOCC2)cc1` (single isomer, unassigned) [Example 1205 Enantiomer 2, 3-Cyclopropyl-3-(3-(3-(4-ethoxyphenyl)ureido)-4-(isobutyl(tetrahydro-2H-pyran-4-yl)amino)phenyl)propanoic acid], < 50 nM.
With `CCC(CC(=O)O)c1cc(NC(=O)Nc2cnc(C)nc2)c(N(CC(C)C)C2CCCCC2)cc1F` (single isomer, unassigned) [Example 1127, 3-(4-(Cyclohexyl(isobutyl)amino)-2-fluoro-5-(3-(2-methylpyrimidin-5-yl)ureido)phenyl)pentanoic acid] the figure was < 5 nM; with `CCC(CC(=O)O)c1ccc(N2CCC[C@@H]2C(C)(C)O)c(NC(=O)Nc2ccc(F)cc2)c1` (single isomer, unassigned) [Example 775], > 50 nM; with `COCC(CC(=O)O)c1ccc(N(CC(C)C)C2CCCCC2)c(NC(=O)Nc2cc(C)on2)c1` (single isomer, unassigned) [Example 987-2], < 50 nM.
Consider `CCC(CC(=O)O)c1ccc(N(CC2CC2)C2CCOCC2)c(Nc2ccc3c(c2)OC(F)(F)O3)c1` (single isomer, unassigned) [Example 710, 3-(4-((cyclopropylmethyl)(tetrahydro-2H-pyran-4-yl)amino)-3-((2,2-difluorobenzo[d][1,3]dioxol-5-yl)amino)phenyl)pentanoic acid], for which the IC50 is < 5 nM.
Take `COCC(CC(=O)O)c1ccc(N(CC(C)C)C2CCC(OC)CC2)c(NC(=O)Nc2ccc(Cl)cc2F)c1` (racemic) [Example 1006, (+/−)-3-(3-(3-(4-Chloro-2-fluorophenyl)ureido)-4-(isobutyl((1r,4r)-4-methoxycyclohexyl)amino)phenyl)-4-methoxybutanoic acid]: the IC50 is < 5 nM.
The result for `CCC(CC(=O)O)c1ccc(N2CCC[C@H]2C(C)(C)O)c(NC(=O)Nc2ccc(F)cc2)c1` (single isomer, unassigned) [Example 829] reads > 50 nM; that for `CCC(CC(=O)O)c1ccc(N(CC(C)C)C2CCCCC2)c(NC(=O)Cc2ccc(C#N)cc2)c1` (racemic) [Example 1086], < 5 nM.
The result for `CCC(CC(=O)O)c1ccc(N2CCOC[C@H]2C(C)C)c(NC(=O)Nc2ccc(C)cc2)c1` (single isomer, unassigned) [Example 907] reads > 50 nM; that for `CCOc1ccc(NC(=O)Nc2cc(C(COC)CC(=O)O)ccc2N(CC(C)C)C2CCOCC2)cc1` (single isomer, unassigned) [Example 1219, 3-(3-(3-(4-Ethoxyphenyl)ureido)-4-(isobutyl(tetrahydro-2H-pyran-4-yl)amino)phenyl)-4-methoxybutanoic acid], > 50 nM; that for `CCOc1cc(Nc2cc(C(CC)CC(=O)O)ccc2N(CC(C)C)C2CCCCC2)ccc1Cl` (single isomer, unassigned) [Example 653, 3-(3-((4-chloro-3-ethoxyphenyl)amino)-4-(cyclohexyl(isobutyl)amino)phenyl)pentanoic acid], < 50 nM.
With `COCC(CC(=O)O)c1cc(F)c(N(CC(C)C)CC(C)C)c(NC(=O)Cc2ccc(Cl)cc2F)c1` (single isomer, unassigned) [Example 1187, 3-(3-(2-(4-Chloro-2-fluorophenyl)acetamido)-4-(diisobutylamino)-5-fluorophenyl)-4-methoxybutanoic acid] the figure was < 5 nM; with `CCC(CC(=O)O)c1ccc(N(CC2CC2)C2CCOCC2)c(NC(=O)Nc2cc(C)on2)c1` (single isomer, unassigned) [Example 700, 3-(4-((Cyclopropylmethyl)(tetrahydro-2H-pyran-4-yl)amino)-3-(3-(5-methylisoxazol-3-yl)ureido)phenyl)pentanoic acid], > 50 nM; with `COCC(CC(=O)O)c1ccc(N(CC(C)C)CC(C)C)c(NC(=O)Nc2ccc(C)cc2)c1` (single isomer, unassigned) [Example 993-2], < 50 nM.
With `Cc1cc(CC(=O)Nc2cc(C(CC(=O)O)C3CC3)ccc2N(CC(C)C)C2CCCCC2)no1` (single isomer, unassigned) [Example 1252, 3-(4-(Cyclohexyl(isobutyl)amino)-3-(2-(5-methylisoxazol-3-yl)acetamido)phenyl)-3-cyclopropylpropanoic acid], the IC50 was < 50 nM.
For `CCC(CC(=O)O)c1cc(NC(=O)Nc2cncnc2)c(N(CC(C)C)C2CCCCC2)cc1F` (single isomer, unassigned) [Example 1124, 3-(4-(Cyclohexyl(isobutyl)amino)-2-fluoro-5-(3-(pyrimidin-5-yl)ureido)phenyl)pentanoic acid], the IC50 was < 5 nM.
In the case of `CCN(c1ccc(C(CC(=O)O)c2ccccc2)cc1NC(=O)Nc1ccc(OC)cc1F)C1CCOCC1` (single isomer, unassigned) [Example 596, 3-(4-(ethyl(tetrahydro-2H-pyran-4-yl)amino)-3-(3-(2-fluoro-4-methoxyphenyl)ureido)phenyl)-3-phenylpropanoic acid], the IC50 was > 50 nM.
With `CCOc1ncc(Nc2cc(C(CC)CC(=O)O)ccc2N(CC(C)C)C2CCCCC2)cn1` (single isomer, unassigned) [Example 303, 3-(4-(cyclohexyl(isobutyl)amino)-3-((2-ethoxypyrimidin-5-yl)amino)phenyl)pentanoic acid] the figure was < 5 nM; with `COCC(CC(=O)O)c1ccc(N(CC(C)C)C2CCCCC2)c(NC(=O)Nc2ccc(Cl)cc2F)c1` (single isomer, unassigned) [Example 985-2], < 5 nM.
With `CC(CC(=O)O)c1ccc(N2C[C@@H](C)O[C@@H](C)C2)c(Nc2ccc(F)cc2)c1` (single isomer, unassigned) [Example 744], the IC50 is > 50 nM.
On to `CCC(CC(=O)O)c1ccc(N2C[C@@H](C)O[C@@H](C)C2)c(Nc2ccc3nc(C)sc3c2)c1` (single isomer, unassigned) [Example 757], for which the IC50 was > 50 nM.
With `CCC(CC(=O)O)c1ccc(N2CCC[C@H]2C(C)(C)O)c(Nc2cnc(OC)nc2)c1` (single isomer, unassigned) [Example 841] the figure was > 50 nM.
